According to patent publication US10351519B2, “Sulfamate derivative compounds, processes for preparing them and their uses” (BIO-PHARM SOLUTIONS CO., LTD., priority 2016, dated 2019):

Legend:
Type in all cases: in vivo
ICR mice = experiment: Anti-epilepsy activity, MES test, mouse; settings: for ED50: po
How it was run: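 Maximal electroshock delivered through corneal electrodes at 60 Hz for 0.2 s: 50 mA for male ICR mice (19–25 g), 150 mA for male SD rats (100–130 g). Compounds given orally in 30% PEG 400 or 20% Tween 80 in saline, tested at peak time, three doses per compound. ED50 for seizure protection derived by Litchfield–Wilcoxon log-probit analysis.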

Sprague-Dawley rats [1] = experiment: Antiallodynic activity on Complete Freund's Adjuvant (CFA)-induced inflammatory pain model; settings: intraperitoneally; for response vs control in vivo at 50 mg/kg / ED50: Rattus norvegicus, ip; for response vs control in vivo at 50 mg/kg: read-out: CFA-induced pain model efficacy %; for ED50: at peak time
SD rats = experiment: Anti-epilepsy activity, scPTZ test, rat; settings: for ED50: Rattus norvegicus, ip
Source text: In this experiment, each test compound sample was formulated as described in Biological Experimental Example I, and administered intraperitoneally to the test animals (mice; ICR or Rat; SD); Experimental animals, male ICR mice and male SD rats, were purchased from OrientBio or Nara biotech, Korea, and housed 4-5 mice per a cage for 4-5 days. The range of mice body weight was used between 19 and 26 grams and range of rats body weight was used between 100 and 130 grams. After Peak time (0.5, 1, 2 and 4 hr) from the administration, PTZ (Pentylenetetrazol) was administered subcutaneously in the concentration capable of inducing 97% intermittent convulsions (mice: 76-110 mg/kg·bw, 10 μl/g, or rats: 79-110 mg/kg·bw, 2 μl/g). If clonic seizure was not observed for at least 30 minutes in the PTZ administered animal, it can be considered that the test compound has anti-epilepsy activity. The median effective dose (ED50) is determined using 6 animals per a concentration (total three different concen-trations), and calculated by Litchfield and Wicoxon log-probit method which is a dose-response relationship.

Sprague-Dawley rats [2] = experiment: Lithium-pilocarpine induced epilepsy test, prevention; settings: for ED50: Rattus norvegicus, ip, read-out: Lithium pilocarpine model (pre) ED50; for Lithium pilocarpine model (pre) peak time: i.p.
Protocol: Male Sprague-Dawley rats (purchased from Orient Bio Inc. Korea) of body weight 175-200 grams were used for these studies and 3 rats per cage were housed for 4-5 days. On the day prior to SE, rats received 127 mg/kg lithium chloride (Sigma, St. Louis, Mo., U.S.A.) intraperitoneally (i.p.). Approximately 18-20 h following this treatment, rats were given an i.p. injection of CD97 dose (30-43 mg/kg) pilocarpine (Sigma). An i.p. injection of 2 mg/kg methyl-scopolamine (Sigma) was administered 30 min prior to pilocarpine to block the effects of the muscarinic agonist on peripheral cholinergic receptors. Test drugs were dissolved in 30% PEG 400 or 20% tween80 (Sigma).
The drugs were administered intraperitoneally (i.p.) in a volume of 2 ul/g body weight. Pharmacological effects of all of the test materials were evaluated to compare test groups (n=6) with a control group (n=6). Control group was administered vehicle only. The efficacy was measured 0.5, 1, 2, or 4 hours after the administration of the test material. The time point that the most animals were protected was defined as peak time and the ED50 was determined at peak time. The animals were then transferred to observation cages and observed continuously for 90 min. Seizure was elicited in approximately 95% of the control group. Protection was defined as complete absence of seizure grade 3-5 (Racine scale; Racine, 1972) over the 90-min observation period. The effective dose of the compound necessary to protect 50% of the animals against seizures compared to controls (i.e. ED50) was determined by a curve fitting program (Excel 2007, Microsoft).

Structure (SMILES) | MES test (po) Peak time (ICR mice) | ED50 (ICR mice) | response vs control in vivo at 50 mg/kg (Sprague-Dawley rats [1]) | CFA-induced pain model Peak Time (Sprague-Dawley rats [1]) | scPTZ test (ip) Peak time (SD rats) | scPTZ test (ip) efficacy % (SD rats; 40 mg/kg) | ED50 (Sprague-Dawley rats [2]) | Lithium pilocarpine model (pre) peak time (Sprague-Dawley rats [2]) | ED50 (Sprague-Dawley rats [1]) | ED50 (SD rats)
C[C@@H](OS(N)(=O)=O)[C@H](O)c1ccccc1Cl [Example 2, (1R, 2R)-1-(2-chlorophenyl)-1-hydroxypropan-2-yl sulfamate] | 2 h | 22.8 mg/kg | 23% | 1 h | 1 h | 33.3% |  |  |  | 
C[C@H](OS(N)(=O)=O)[C@@H](O)c1c(Cl)cccc1Cl [Example 7, (1S, 2S)-1-(2,6-dichlorophenyl)-1-hydroxypropan-2-yl sulfamate] | 1 h | 40.7 mg/kg |  | 1 h | (0.5 h) |  | 23.3 mg/kg | (0.5 h) | 31.9 mg/kg | 10 mg/kg
C[C@@H](OS(N)(=O)=O)[C@H](O)c1c(Cl)cccc1Cl [Example 8, (1R, 2R)-1-(2,6-dichlorophenyl)-1-hydroxypropan-2-yl sulfamate] | 2 h | 27.9 mg/kg |  | 0.5 h | (1 h) |  | 29.3 mg/kg | (2 h) | 52.7 mg/kg | 15.3 mg/kg
COCO[C@H](c1ccccc1Cl)[C@@H](C)OS(N)(=O)=O [Example 70, (1R, 2R)-1-(2-chlorophenyl)-1-(methoxymethoxy)propan-2-yl sulfamate] | 2 h | 50.5 mg/kg | 23.7% | 0.5 h | (1 h) |  | 100 mg/kg | (0.5 h) |  | 36 mg/kg
